Results from US5585381A, “Pyrimidine derivatives and pharmaceutical composition” (Kureha Chemical Industry Co., Ltd., priority 1994, dated 1996).

Assays:
[1] = ACE inhibitor; cited from earlier work
[2] = target: T1, angiotensin II receptor subtype 1 (AT1) (Oryctolagus cuniculus, UniProt P34976); assay: Binding to angiotensin II receptor subtype 1 (AT1); parameters: species or system rabbits (adrenal glands); settings: 3H-angiotensin II tracer; for IC50: room temperature, 3 hours
T1 construct: from adrenal glands in rabbits; from tissue; host or cells: rabbit adrenal glands
T1 sequence (P34976 1-359): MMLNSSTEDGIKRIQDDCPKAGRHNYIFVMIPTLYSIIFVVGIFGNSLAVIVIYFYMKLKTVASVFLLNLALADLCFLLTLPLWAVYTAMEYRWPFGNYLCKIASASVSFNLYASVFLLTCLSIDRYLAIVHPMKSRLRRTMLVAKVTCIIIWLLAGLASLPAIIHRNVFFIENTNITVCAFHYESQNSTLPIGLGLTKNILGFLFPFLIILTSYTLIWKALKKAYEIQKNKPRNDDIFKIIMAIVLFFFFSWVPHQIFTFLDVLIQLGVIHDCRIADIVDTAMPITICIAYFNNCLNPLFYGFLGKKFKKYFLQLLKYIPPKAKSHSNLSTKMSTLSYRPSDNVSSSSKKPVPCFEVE
Protocol: (§1) In this Example, the affinity to the angiotensin II receptor subtype 1 or subtype 2 was evaluated by a binding assay in accordance with the method described in Biochem. Pharmacol., 33, 4057-4062 (1984).
(§2) Specifically, the measurement of the total binding in the presence of each drug was performed as follows:
(§3) A mixture (final volume=0.25 ml) of a drug in a given concentration (the drug was dissolved in DMSO, and diluted to a double volume with a buffer attached to a drug discovery system to prepare sample for the assay; 0,025 ml), a tracer (0.025 ml), and receptors (0.2 ml) was incubated [in the case of the angiotensin II receptor subtype 1 (AT1), at room temperature for 3 hours, and in the case of the subtype 2 (AT2), at 37° C. for 1 hour]. Then, the reaction mixture was filtered with suction (GF/C filter was used in AT1, and GF/B filter was used in AT2). The filter papers after filtration with suction (the tracer bound to the receptors) were counted by a γ-well counter (ARC-500, Aloka). The non-specific bindings were measured by repeating the above method, except that a large excess amount of a displacer was added. The specific binding of the drug in the given concentration was calculated by subtracting the non-specific binding from the total binding, respectively.
(§4) In AT1 and AT2, the percentages to inhibit the bindings of radioactive ligands (tracer) to receptors by the drugs to be tested (IC50 value of concentration to show 50% inhibition, or binding inhibition % in 100 μM) were measured, using the drugs to be tested and control drugs in the given concentration.

[3] = target: T2, angiotensin II receptor subtype 2 (AT2) (Bos taurus, UniProt G5E6F7); assay: Binding to angiotensin II receptor subtype 2 (AT2); parameters: species or system bovine (cerebellar cortex); settings: 125I-Tyr4-angiotensin II tracer, 37° C., 1 hour
T2 construct: from cerebellar cortex in bovine; from tissue; host or cells: bovine cerebellar cortex
T2 sequence (G5E6F7 1-362): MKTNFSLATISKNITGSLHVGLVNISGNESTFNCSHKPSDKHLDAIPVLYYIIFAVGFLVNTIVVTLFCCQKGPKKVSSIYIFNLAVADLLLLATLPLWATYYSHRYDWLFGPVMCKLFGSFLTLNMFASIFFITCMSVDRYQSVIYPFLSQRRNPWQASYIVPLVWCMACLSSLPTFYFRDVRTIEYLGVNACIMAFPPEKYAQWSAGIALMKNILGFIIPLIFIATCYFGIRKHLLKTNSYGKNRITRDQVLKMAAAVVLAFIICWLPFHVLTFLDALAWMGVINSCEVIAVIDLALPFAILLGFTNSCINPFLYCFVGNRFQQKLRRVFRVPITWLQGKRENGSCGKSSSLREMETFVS
Protocol: as §1, §2, §3, §4
from cerebellar cortex in bovine
tracer: ^125 I-Tyr^4 -angiotensin II

[4] = test system: kidney disease model rats; assay: Action to depress blood pressure in kidney disease model rats (tail cuff); format: in vivo, Sprague-Dawley female rats; settings: 20 mg/kg per os; after two days; control 210 mmHg
Protocol: (§5) The compounds of the present invention and the reference substance were forcedly administered per os to kidney disease model rats, and the action to depress blood pressure was observed. The kidney disease model rats were prepared by ligature of branches of renal artery in accordance with the conventional method, that is, the left hilum renalis of Sprague-Dawley female rats was exposed under anesthesia, and one of four secondary branches of renal artery was left unligated, while the remaining three branches were ligated, respectively. After a week, the hilum renalis (artery, vein, and ureter) of the right kidney were further ligated to thereby prepare the rats whose renal function was lowered to approximately 1/8 of the normal function. Each group consisted of eight rats. The drugs to be tested (20 mg/kg) were administered to each administering group, and only water was administered to control group. After two days from the administration, the systolic blood pressure was measured by the tail cuff method using a blood pressure measuring apparatus (UR5000; Ueda).

[5] = test system: kidney disease model rats; assay: Renal function indicatory value (action to kidney diseases); format: in vivo, Sprague-Dawley female rats; settings: 20 mg/kg/day per os, two weeks; for Creatinine clearance (CCr): control 0.20; for Creatinine (serum, Scr): control 2.0; for Urea nitrogen (BUN): control 100
Protocol: The kidney disease model rats were prepared by ligature of branches of renal artery in accordance with the conventional method, that is, the left hilum renalis of Sprague-Dawley female rats was exposed under anesthesia, and one of four secondary branches of renal artery was left unligated, while the remaining three branches were ligated, respectively. […] Each group consisted of eight rats. The drugs to be tested (20 mg/kg) were administered to each administering group, and only water was administered to control group. After two days from the administration, the systolic blood pressure was measured by the tail cuff method using a blood pressure measuring apparatus (UR5000; Ueda).
The kidney disease model rats were prepared as in Example 21. Fifteen groups (8 rats per group) were sleeked in a manner so that there were no major differences between each group in the serum creatinine value and the urea nitrogen value indicating renal function. The rats in each group were allowed to freely take up feed and water. […] To the rats in the control group, only water was forcedly administered per os every day. After two weeks, 0.2 ml of blood was collected from the carotid artery of the rat under anesthesia, and centrifuged to obtain serum. Using 25 μl of the serum, serum creatinine (Scr) was measured by a creatinine analytical instrument (Beckman). Using 10 μl of the serum, urea nitrogen (BUN) was measured by a BUN analytical instrument (Beckman). Creatinine clearance was evaluated as follows:
After serum creatinine measurement, rats were placed in urinary metabolic cages for 24 hours to collect urine. Urinary creatine concentration (Ucr) was measured by a creatinine analytical instrument, and total volume of urination (Uvol) was also measured. Creatinine clearance (CCr) was calculated by the following formula: [formula]

[6] = test system: kidney disease model rats; assay: Action to survival time of kidney diseased animals; format: in vivo, Sprague-Dawley female rats; settings: 20 mg/kg/day per os; observation eight weeks (upper limit); control 5.0
Protocol: as §5
The kidney disease model rats were prepared as in Example 21. Fifteen groups (8 rats per group) were prepared in a manner so that there was no major difference between the groups in the serum creatinine value and the urea nitrogen value indicating renal function. The rats in each group were allowed to freely take up feed and water. […] To the rats in the control group, only water was forcedly administered per os every day. If kidney diseases are aggravated, the rat will die of uremia. Thus, the survival time was observed as comprehensive indication of the improvement effect on the kidney diseases. The observation period was eight weeks. Thus if all rats survived, the average survival time is eight weeks and it is an upper limit.

| SMILES | blood pressure [1] | progress of renal dysfunction [1] | inhibition at 100 µM [2] [%] | inhibition at 100 µM [3] [%] | Blood pressure (average systolic) [4] [mmHg] | Creatinine clearance (CCr) [5] [mL/min] | Creatinine (serum, Scr) [5] [mg/dL] | Urea nitrogen (BUN) [5] [mg/dL] | Average survival time [6] [weeks] | IC50 [2] [µM] |
| --- | --- | --- | --- | --- | --- | --- | --- | --- | --- | --- |
| CCOC(=O)[C@H](CCc1ccccc1)N[C@@H](C)C(=O)N1CCC[C@H]1C(=O)O [enalapril] | blood pressure is lowered | the progress of renal dysfunction is improved | – | – | – | – | – | – | – | – |
| CCCCC(=O)Nc1c(NCc2ccc(OC)cc2)ncnc1NCc1ccc(C(=O)O)cc1 [Compound No. 10] | – | – | 6 | 0 | 208 | 0.33 | 1.6 | 81 | 7.0 | – |
| CCCCC(=O)Nc1c(NCc2ccc(C(=O)O)cc2)ncnc1OC [compound 2, 4-[[(6-methoxy-5-valeramido)pyrimidin-4-yl]aminomethyl]benzoic acid] | – | – | – | 0 | 201 | 0.35 | 1.6 | 78 | 7.5 | 28 |
| CCCCC(=O)Nc1c(NCc2ccc(C(=O)O)cc2)ncnc1N(C)Cc1ccccc1 [Compound No. 61, 4-[[(6-N-benzylmethylamino-5-valeramido)pyrimidin-4-yl]aminomethyl]benzoic acid] | – | – | 42 | 0 | 205 | 0.32 | 1.6 | 81 | 6.9 | – |
| CCCCC(=O)Nc1c(NCCCc2ccccc2)ncnc1NCc1ccc(C(=O)O)cc1 [Compound No. 9, 4-[[(6-phenylpropylamino-5-valeramido)pyrimidin-4-yl]aminomethyl]benzoic acid] | – | – | 6 | 0 | 204 | 0.31 | 1.6 | 80 | 6.9 | – |
| CCCCC(=O)Nc1c(NCc2ccccc2)ncnc1NCc1ccc(C(=O)O)cc1 [Compound No. 7, 4-[[(6-benzylamino-5-valeramido)pyrimidin-4-yl]aminomethyl]benzoic acid] | – | – | 1 | 0 | 208 | 0.33 | 1.6 | 80 | 7.0 | – |
| CCCCC(=O)Nc1c(NCCc2ccccc2)ncnc1NCc1ccc(OC)cc1 [compound 90, 4-[[(6-phenethylamino-5-valeramido)pyrimidin-4-yl]aminomethyl]anisole] | – | – | 20 | 0 | 208 | 0.29 | 1.7 | 82 | 6.9 | – |
| CCCCC(=O)Nc1c(Cl)ncnc1NCc1ccc(OC)cc1 [Compound No. 48, 4-[[(6-Chloro-5-Valeramido)pyrimidin-4-yl]aminomethyl]anisole] | – | – | 0 | 0 | 207 | 0.30 | 1.7 | 83 | 6.9 | – |
| CCCCC(=O)Nc1c(NCc2ccc(C(=O)O)cc2)ncnc1OCc1ccccc1 [Compound No. 11, 4-[[(6-benzyoloxy-5-valermido)pyrimidin-4-yl]aminomethyl]benzoic acid] | – | – | – | – | 202 | 0.35 | 1.6 | 78 | 7.5 | 15 |
| C[C@H](CS)C(=O)N1CCC[C@H]1C(=O)O [captoril] | blood pressure is lowered | the progress of renal dysfunction is improved | – | – | – | – | – | – | – | – |
| CCCCC(=O)Nc1c(NCc2ccccc2)ncnc1NCc1ccc(OC)cc1 [Compound No. 89, 4-[[(6-benzylamino-5-valeramido)pyrimidin-4-yl]aminomethyl]anisole] | – | – | 11 | 0 | 204 | 0.33 | 1.6 | 80 | 7.0 | – |
| CCCCC(=O)Nc1c(NCCc2ccccc2)ncnc1NCc1ccc(C(=O)O)cc1 [Compound No. 8, 4-[[(6-phenethylamino-5-valeramido)pyrimidin-4-yl]aminomethyl]benzoic acid] | – | – | 0 | 0 | 203 | 0.33 | 1.6 | 79 | 7.1 | – |
